The target in the test is Nuclear receptor coactivator 2 (Homo sapiens) (UniProt Q15596). Briefly: NCOA2-driven reporter transcription inhibition – cell-based, luciferase reporter, luminescence, selectivity assay for SRC1 inhibitor project, late-stage follow-up (AID 651799). To be noted: cell-based SRC2 luciferase reporter. A general note: A reporter such as luciferase makes a cellular process visible.

The source made the active and inactive calls. The rule behind the calls is not given here.

Sequence of Nuclear receptor coactivator 2 (Homo sapiens) (Q15596 whole entry, looked up): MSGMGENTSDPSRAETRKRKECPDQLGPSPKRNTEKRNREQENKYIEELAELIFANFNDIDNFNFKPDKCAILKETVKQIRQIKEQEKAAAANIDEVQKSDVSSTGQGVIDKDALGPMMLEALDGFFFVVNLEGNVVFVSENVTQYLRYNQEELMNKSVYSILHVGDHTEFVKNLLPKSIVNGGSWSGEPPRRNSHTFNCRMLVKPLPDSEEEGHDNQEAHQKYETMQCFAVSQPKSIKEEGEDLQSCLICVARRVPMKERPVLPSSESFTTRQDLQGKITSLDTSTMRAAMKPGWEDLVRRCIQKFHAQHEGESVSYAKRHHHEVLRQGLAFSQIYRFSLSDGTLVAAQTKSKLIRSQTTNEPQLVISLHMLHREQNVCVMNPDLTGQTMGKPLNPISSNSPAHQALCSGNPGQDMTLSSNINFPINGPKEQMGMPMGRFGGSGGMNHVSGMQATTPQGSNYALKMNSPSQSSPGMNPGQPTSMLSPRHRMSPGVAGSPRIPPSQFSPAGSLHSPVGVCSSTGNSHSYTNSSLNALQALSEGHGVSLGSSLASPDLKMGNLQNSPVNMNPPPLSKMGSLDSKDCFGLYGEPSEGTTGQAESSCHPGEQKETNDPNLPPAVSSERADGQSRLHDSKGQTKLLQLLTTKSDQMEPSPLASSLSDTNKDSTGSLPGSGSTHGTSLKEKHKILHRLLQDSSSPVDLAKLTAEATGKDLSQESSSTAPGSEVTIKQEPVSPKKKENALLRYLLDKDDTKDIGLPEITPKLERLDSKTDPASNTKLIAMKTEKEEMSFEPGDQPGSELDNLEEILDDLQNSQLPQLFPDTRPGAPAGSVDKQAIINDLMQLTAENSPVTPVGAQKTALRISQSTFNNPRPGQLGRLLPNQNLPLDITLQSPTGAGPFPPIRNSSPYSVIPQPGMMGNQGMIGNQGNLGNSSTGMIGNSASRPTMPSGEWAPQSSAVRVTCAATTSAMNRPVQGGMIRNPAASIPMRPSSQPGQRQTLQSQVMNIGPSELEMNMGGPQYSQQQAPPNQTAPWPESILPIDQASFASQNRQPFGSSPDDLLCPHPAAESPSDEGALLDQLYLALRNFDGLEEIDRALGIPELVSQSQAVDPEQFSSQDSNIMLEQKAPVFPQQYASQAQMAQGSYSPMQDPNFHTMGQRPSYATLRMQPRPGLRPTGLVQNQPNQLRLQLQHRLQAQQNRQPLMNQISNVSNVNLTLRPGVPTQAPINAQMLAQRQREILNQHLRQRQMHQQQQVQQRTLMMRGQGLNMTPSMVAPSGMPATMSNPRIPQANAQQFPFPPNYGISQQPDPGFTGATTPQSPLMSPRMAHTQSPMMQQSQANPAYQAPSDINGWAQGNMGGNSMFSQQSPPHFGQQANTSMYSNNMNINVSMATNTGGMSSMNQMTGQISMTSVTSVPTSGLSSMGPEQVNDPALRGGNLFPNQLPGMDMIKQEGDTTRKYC

With `COc1ccc(Nc2ncnc3ccc(Br)cc23)c(OC)c1`, the IC50 result was “inactive”.
As for `COc1ccc(NC(=O)CN(C)C(=O)C2(c3ccccc3)CCCC2)cc1`, the entry is “inactive”.

For the origin of these results see PubChem BioAssay AID651799 (The Scripps Research Institute Molecular Screening Center, 2012).
